These are literature values, as cited in patent US20020064788A1, “Systematic approach to mechanism-of-response analyses” (priority 2000, published 2002).

Data set [1] relates to malignant and normal cells.
In another data set the test system is androgen-dependent cells. Particulars: ouabain-induced decrease in Na+K+-ATPase activity.
The subject of data set [2] is intracellular Ca^2+ levels; c-fos, c-jun, AP-1. Conditions: partial inhibition of Na+K+-ATPase.
The test system of the next data set is breast cancer. Conditions: women on digitalis, five years after mastectomy.
In the next data set the test system is Glioblastoma cell lines. Conditions: 30-60 nM, several Glioblastoma cell lines.
Data set [3] relates to Jurkat (T-cell) cell lines.
The test system of data set [4] is Daudi (B-cell) cell lines. Conditions: non-toxic doses.

Like-named read-outs stand apart in the source and are kept apart here.

In the case of `C[C@H]1O[C@@H](O[C@H]2[C@@H](O)C[C@H](O[C@H]3[C@@H](O)C[C@H](O[C@H]4CC[C@@]5(C)[C@H](CC[C@@H]6[C@@H]5CC[C@]5(C)[C@@H](C7=CC(=O)OC7)CC[C@]65O)C4)O[C@@H]3C)O[C@@H]2C)C[C@H](O)[C@@H]1O` [Digitoxin], the “inhibition of Na+K+-ATPase” value with Na^+K^+-ATPase was “specific inhibitors”.

Consider `CC/C(=C(\c1ccccc1)c1ccc(OCCN(C)C)cc1)c1ccccc1` [tamoxifen], for which, in the data set with Na^+K^+-ATPase, the “inhibition of Na+K+-ATPase” value is on record as “appears to inhibit”.

With `C[C@@H]1O[C@@H](O[C@H]2C[C@@H](O)[C@]3(CO)[C@H]4[C@H](O)C[C@]5(C)[C@@H](C6=CC(=O)OC6)CC[C@]5(O)[C@@H]4CC[C@]3(O)C2)[C@H](O)[C@H](O)[C@H]1O` [ouabain], the “inhibition of Na+K+-ATPase” value in the data set on Na^+K^+-ATPase is listed as “specific inhibitors”. Besides, the sensitization to irradiation entry in data set [1] (malignant cells) is listed as “sensitizes”. In addition, the sensitization to irradiation result in data set [1] (normal cells) is reported as “not”. In the data set on androgen-dependent cells, the “sensitivity of cells to cisplatin” value was “reduces sensitivity”. In data set [2], the “expression of c-fos, c-jun, and the transcription factor AP-1” value is listed as “increases”; the “intracellular Ca2+ levels” value is on record as “increases”.

Regarding digitalis, the “reduction in recurrence of breast cancer” value in the data set on breast cancer is listed as 9.6 fold. The apoptosis entry with Glioblastoma cell lines is “induces apoptosis”; in data set [3] (non-toxic doses, Jurkat), “induces apoptosis”; in data set [4] it was “induces apoptosis”. Also, the cell adherence entry in the data set on Glioblastoma cell lines is “affects cell adherence”.

B1: Fas ligand: protein which binds to Fas receptor and strongly induces apoptosis (protein, UniProt P48023 130-281, looked up)
Tumor necrosis factor ligand …: QIGHPSPPPEKKELRKVAHLTGKSNSRSMPLEWEDTYGIVLLSGVKYKKGGLVINETGLYFVYSKVYFRGQSCNNLPLSHKVYMRNSKYPQDLVMMEGKMMSYCTTGQMWARSSYLGAVFNLTSADHLYVNVSELSLVNFEESQTFFGLYKL
Turning to B1, in data set [3] (Jurkat cells, monitored by flow cytometry), the apoptosis entry was “induces apoptosis”.
